The record followed here is ChEMBL document CHEMBL3991601, “The target landscape of clinical kinase drugs” (Science, 2017).

Where a name gives a salt, the structure may show the parent alone. Calls of active or inactive are those of the source.

The target of assay [1] is T1, DNA replication licensing factor MCM4 (Homo sapiens, UniProt P33991).
T1 sequence (P33991 whole entry): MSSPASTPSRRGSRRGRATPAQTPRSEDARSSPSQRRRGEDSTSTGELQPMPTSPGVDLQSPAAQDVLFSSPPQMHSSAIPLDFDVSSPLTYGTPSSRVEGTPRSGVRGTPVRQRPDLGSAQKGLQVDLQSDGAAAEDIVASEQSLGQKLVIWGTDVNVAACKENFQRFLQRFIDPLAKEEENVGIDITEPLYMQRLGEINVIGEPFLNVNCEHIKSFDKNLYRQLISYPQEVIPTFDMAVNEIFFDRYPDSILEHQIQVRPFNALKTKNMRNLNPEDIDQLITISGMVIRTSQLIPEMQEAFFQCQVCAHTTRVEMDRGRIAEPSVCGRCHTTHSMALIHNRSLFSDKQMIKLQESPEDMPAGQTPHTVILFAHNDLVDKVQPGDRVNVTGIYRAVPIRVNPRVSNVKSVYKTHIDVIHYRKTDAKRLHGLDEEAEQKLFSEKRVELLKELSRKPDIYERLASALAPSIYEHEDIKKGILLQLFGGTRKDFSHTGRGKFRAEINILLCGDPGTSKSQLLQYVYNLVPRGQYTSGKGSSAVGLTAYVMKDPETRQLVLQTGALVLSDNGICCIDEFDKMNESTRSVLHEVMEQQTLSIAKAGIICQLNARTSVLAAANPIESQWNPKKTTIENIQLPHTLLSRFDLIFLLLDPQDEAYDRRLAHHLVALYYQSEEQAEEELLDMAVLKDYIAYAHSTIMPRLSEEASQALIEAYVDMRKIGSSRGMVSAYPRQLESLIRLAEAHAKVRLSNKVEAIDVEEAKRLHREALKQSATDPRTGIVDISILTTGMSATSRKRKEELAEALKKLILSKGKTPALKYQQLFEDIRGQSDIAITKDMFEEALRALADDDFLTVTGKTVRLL

The target in assay [2] is LIM domain kinase 2 (Homo sapiens, UniProt P53671).
Chain of LIM domain kinase 2 (P53671 whole entry, the tested form may be a part): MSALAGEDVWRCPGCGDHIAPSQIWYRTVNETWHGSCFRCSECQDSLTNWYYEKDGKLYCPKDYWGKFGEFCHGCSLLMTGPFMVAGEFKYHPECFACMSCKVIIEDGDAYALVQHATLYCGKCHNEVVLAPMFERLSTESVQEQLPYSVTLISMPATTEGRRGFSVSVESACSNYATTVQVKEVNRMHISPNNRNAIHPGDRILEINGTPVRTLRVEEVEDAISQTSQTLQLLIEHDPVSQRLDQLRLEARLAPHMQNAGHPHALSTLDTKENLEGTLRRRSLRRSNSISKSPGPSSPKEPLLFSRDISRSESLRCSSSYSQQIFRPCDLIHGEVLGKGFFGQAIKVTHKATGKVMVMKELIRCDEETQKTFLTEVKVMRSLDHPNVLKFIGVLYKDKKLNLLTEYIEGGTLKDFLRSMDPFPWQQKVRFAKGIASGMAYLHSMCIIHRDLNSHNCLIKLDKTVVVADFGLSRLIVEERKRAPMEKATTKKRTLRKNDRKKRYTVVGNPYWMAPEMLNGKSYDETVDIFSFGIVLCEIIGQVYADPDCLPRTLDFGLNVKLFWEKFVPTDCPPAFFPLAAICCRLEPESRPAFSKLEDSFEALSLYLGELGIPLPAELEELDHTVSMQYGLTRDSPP
Assay [3] addresses Mitogen-activated protein kinase 11 (Homo sapiens, UniProt Q15759).
Assay [4] concerns the target Ras-related protein Rab-6A (Homo sapiens, UniProt P20340).
Assay [5] deals with T2, Signal recognition particle receptor subunit alpha (Homo sapiens, UniProt P08240).
T2 sequence (P08240 whole entry): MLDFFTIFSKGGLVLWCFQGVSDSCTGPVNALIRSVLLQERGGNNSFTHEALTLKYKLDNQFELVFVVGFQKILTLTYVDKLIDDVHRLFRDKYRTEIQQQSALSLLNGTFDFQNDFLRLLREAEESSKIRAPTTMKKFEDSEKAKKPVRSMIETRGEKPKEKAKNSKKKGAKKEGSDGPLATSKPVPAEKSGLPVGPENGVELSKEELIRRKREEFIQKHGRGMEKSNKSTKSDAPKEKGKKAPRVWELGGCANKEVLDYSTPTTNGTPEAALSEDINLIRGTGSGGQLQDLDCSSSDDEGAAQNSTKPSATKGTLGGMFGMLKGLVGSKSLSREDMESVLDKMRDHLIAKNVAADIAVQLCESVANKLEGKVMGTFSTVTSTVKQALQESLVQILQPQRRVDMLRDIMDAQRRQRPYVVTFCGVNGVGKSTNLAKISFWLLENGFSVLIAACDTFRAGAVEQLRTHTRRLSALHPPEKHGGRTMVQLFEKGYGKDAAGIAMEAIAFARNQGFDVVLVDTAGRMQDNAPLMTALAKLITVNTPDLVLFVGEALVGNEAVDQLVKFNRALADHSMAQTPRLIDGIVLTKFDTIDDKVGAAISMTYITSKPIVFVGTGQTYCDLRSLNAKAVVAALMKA

Assay [6] addresses Inosine-5'-monophosphate dehydrogenase 2 (Homo sapiens, UniProt P12268).
Assay [7] deals with Phosphatidylethanolamine-binding protein 1 (Homo sapiens, UniProt P30086).
Chain of Phosphatidylethanolamine-binding protein 1 (P30086 whole entry): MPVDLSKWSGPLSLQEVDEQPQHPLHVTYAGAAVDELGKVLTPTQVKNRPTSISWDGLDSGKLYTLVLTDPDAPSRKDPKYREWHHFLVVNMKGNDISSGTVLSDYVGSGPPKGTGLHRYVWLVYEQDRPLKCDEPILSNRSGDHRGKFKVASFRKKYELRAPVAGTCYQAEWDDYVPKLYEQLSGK
Further: in the data inactive means no Kd found up to 30 µM.

Chain of Mitogen-activated protein kinase 11 (Q15759 whole entry): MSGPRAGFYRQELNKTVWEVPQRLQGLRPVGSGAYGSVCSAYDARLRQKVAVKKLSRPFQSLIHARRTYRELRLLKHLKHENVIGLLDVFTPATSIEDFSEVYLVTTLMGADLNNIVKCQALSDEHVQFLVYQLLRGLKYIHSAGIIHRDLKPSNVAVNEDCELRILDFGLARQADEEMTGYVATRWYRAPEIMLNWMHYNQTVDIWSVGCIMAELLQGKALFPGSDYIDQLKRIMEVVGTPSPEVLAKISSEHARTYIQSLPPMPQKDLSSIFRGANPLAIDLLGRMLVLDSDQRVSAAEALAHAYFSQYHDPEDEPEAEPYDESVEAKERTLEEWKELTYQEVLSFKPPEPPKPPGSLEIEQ
Chain of Ras-related protein Rab-6A (P20340 whole entry): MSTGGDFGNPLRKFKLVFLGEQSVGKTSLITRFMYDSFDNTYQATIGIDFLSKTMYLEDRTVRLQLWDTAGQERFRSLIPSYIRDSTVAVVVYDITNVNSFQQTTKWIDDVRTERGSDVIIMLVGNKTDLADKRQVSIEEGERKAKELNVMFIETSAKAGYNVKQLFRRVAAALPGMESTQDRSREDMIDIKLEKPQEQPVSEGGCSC

As a reminder, the Kd is the free concentration of one partner at which half of the binding sites on the other are occupied at equilibrium, for simple one-to-one binding. Turning to `Nc1ncnc2c1c(-c1cccc(OCc3ccccc3)c1)cn2[C@H]1C[C@@H](CN2CCC2)C1` [AEW-541], the Kd in assay [1], in assay [2], in assay [3] and in assay [4] was > 30 µM (inactive) throughout.

On to `C=CC(=O)Nc1cc2c(Nc3ccc(F)c(Cl)c3)ncnc2cc1C#CC(C)(C)N1CCN(C)CC1` [AV-412 FREE BASE], for which the Kd in assay [1], in assay [5], in assay [2], in assay [3], in assay [6] and in assay [4] was > 30 µM (inactive) in each case.

For `CCS(=O)(=O)N1CCN(c2ccc(Nc3ncc(C(N)=O)c(NC4CC4)n3)cc2)CC1` [Cerdulatinib Hydrochloride], the Kd in assay [1], in assay [5], in assay [2], in assay [3], in assay [6] and in assay [4] was > 30 µM (inactive) each time.

`CCn1cc(-c2ccnc3[nH]c(-c4cccc(CN(C)C)c4)cc23)c(-c2ccc(NC(=O)N(C)C)cc2)n1` [GSK-1070916]: the Kd in assay [1], in assay [2], in assay [3], in assay [6] and in assay [4] was > 30 µM (inactive) each time.

Regarding `CNC(=O)c1nn(C)c2c1C(C)(C)Cc1cnc(Nc3ccc(N4CCN(C)CC4)cc3)nc1-2` [MILCICLIB], the Kd in assay [1], in assay [5], in assay [2], in assay [3] and in assay [4] was > 30 µM (inactive) each time.

With `NC1(c2ccc(-c3nc4ccn5c(=O)[nH]nc5c4cc3-c3ccccc3)cc2)CCC1` [MK-2206], the Kd in assay [1], in assay [5], in assay [2], in assay [3], in assay [6] and in assay [7] was > 30 µM (inactive) each time.

For `FC(F)(F)c1ccc(/C=C/c2nc(COc3ccc(CCCCn4ccnn4)cc3)co2)cc1` [MUBRITINIB], the Kd in assay [1], in assay [5], in assay [2], in assay [3], in assay [7] and in assay [4] was > 30 µM (inactive) each time.

`Cc1[nH]c(/C=C2\C(=O)Nc3ccccc32)c(C)c1CCC(=O)O` [ORANTINIB]: the Kd in assay [1], in assay [5], in assay [2], in assay [3] and in assay [6] was > 30 µM (inactive) each time.

Take `CNC(=O)c1cc(Oc2ccc(NC(=O)Nc3cc(C(C)(C)C)nn3-c3ccc4ncccc4c3)c(F)c2)ccn1` [REBASTINIB]: the Kd in assay [5] is > 30 µM (inactive); in assay [2], 3.5 µM (active); in assay [3], > 30 µM (inactive); in assay [6] it was > 30 µM (inactive); in assay [4] it was > 30 µM (inactive).

On to `N#CC[C@H](C1CCCC1)n1cc(-c2ncnc3[nH]ccc23)cn1` [RUXOLITINIB], for which the Kd in assay [1], in assay [6] and in assay [7] was > 30 µM (inactive) throughout.

Regarding `CN1CCN(CCOc2cc(OC3CCOCC3)c3c(Nc4c(Cl)ccc5c4OCO5)ncnc3c2)CC1` [SARACATINIB], the Kd in assay [1], in assay [5], in assay [2], in assay [3], in assay [6] and in assay [4] was > 30 µM (inactive) in each case.

Turning to `Cn1ncc(Cl)c1-c1cc(C(=O)N[C@H](CN)Cc2ccc(F)c(F)c2)oc1Cl` [UPROSERTIB], the Kd in assay [5], in assay [2], in assay [3], in assay [6], in assay [7] and in assay [4] was > 30 µM (inactive) throughout.
